Assay results as given in US10856562B2, “Flavor composition and edible compositions containing same” (MARS, INCORPORATED, priority 2013, dated 2020).
Square brackets hold non-standard residues; d marks the D form. Ends that are not written are not given here. pGlu = O=C1CC[C@@H](C(=O)O)N1

System: panelists
Experiment: Consensus attribute scores of flavor enhancers in Uncle Ben's Garden Vegetable Ready rice
Format: in vivo, human
Parameters: key to Cooked White Rice / Vegetable Oil / Vegetable Complex / Cooked Green Vegetable / Cooked Corn / Sweet (BASIC TASTES) / Salt (BASIC TASTES) / Mouthdrying (Texture) / Residual Mouthcoating (Texture) / Total Aromatics / Bitter (BASIC TASTES): 15-point scale, 0 = none, 15 = very strong
Settings: for Bitter (BASIC TASTES) / Black Pepper / Cooked Corn / Cooked Green Vegetable / Cooked White Rice / Dehydrated onion/garlic / HVP/Brothy / Mineral/Flint / Mouthdrying (Texture) / Residual Mouthcoating (Texture) / Salt (BASIC TASTES) / Salt Burn (Chemical Feeling Factors) / Sweet (BASIC TASTES) / Total Aromatics / Umami (Chemical Feeling Factors) / Vegetable Complex / Vegetable Oil: rice
Procedure: Descriptive attributes (e.g., taste, flavor and chemical feeling factors) of three use levels of pGlu-Cys (FE-35), pGlu-Cys-Gly (FE-36), pGlu-Cys-Cys (FE-37), pGlu-Cys-Val (FE-38) and pGlu-Val-Cys (UE-30) flavor composition peptides were determined. The three use levels were as follows: 1.0 ppb, 10.0 ppb and 100.0 ppb.
Data was collected for the attributes of the product in-mouth for the use levels according to the following protocol: • The samples were analyzed for flavor by six to nine members of a panel, trained and experienced in flavor evaluation using the Spectrum™ method. Samples were evaluated across multiple panel sessions. • The strength of each attribute was rated on a 15-point scale, where 0=none and 15=very strong. • This scale incorporates the ability to use tenths of a point and therefore has the potential of 150 scale differentiations. • The scale may be expanded beyond 15 points to include extreme ratings if necessary.
Preparation of Rice Samples • Each flavor enhancer was tested in Uncle Ben's Garden Vegetable Ready rice matrix at 3 different concentrations: 1 ppb, 10 ppb and 100 ppb. A total of 15 points with flavor enhancers were prepared for sensory evaluation. Additionally, 15 control samples were prepared. Each point had 2 samples (test and control) and was made from one pouch of rice. • Directions to prepare the solutions: • The 15 ready- to eat pouches were microwaved according to the procedure found on the back of the pouch: (1) squeeze pouch to separate rice, (2) tear two inches to vent, (3) heat on High for 90 seconds and (4) remove from microwave using COOL TOUCH area on untorn side. • From each pouch 124.75 g (test sample) and 99.8 g (control) were weighed out. The test sample had the flavor enhancer and/or salt. The control sample only had salt added. • The flavor enhancer and/or salt (non-iodized salt) were weighed in a soufflé cup. The weighed amount of flavor enhancer and/or salt was added to the sub-sampled rice. The rice was stirred and mixed to evenly distribute the salt added. • Some rice was placed back into the soufflé cup, sealed, and the cup was shook to get the flavor enhancer and/or salt that may have been stuck on the walls of the soufflé cup. After shaking the soufflé cup, the rice was added back to the original sub-sampled rice and stirred/mixed again. • Each sample (test and control) was microwaved for another 30 seconds (or until warm) to ensure that the salts/compounds were going completely into the solutions. • All samples (test and control) were tasted at the same temperature. • Each test sample had 0.2% NaCl added and flavor enhancers at the specified concentrations.
A summary of the concentrations of NaCl and flavor composition peptides in the rice samples is described in table 23. The first value of each cell represents a single sample amount of an ingredient in milligrams, and the second number in parenthesis is a doubling of the ingredient (in grams) for use in a doubled size sample.
The panelists evaluated each sample for the attributes described by table 25.

[pGlu]-Cys-Cys (cysteine pairing not given here) [FE-37]
Bitter in rice (all samples (1, 10, 100 ppb)): low in bitter | Cooked green vegetable in rice compared to the Control (all samples (1, 10, 100 ppb)): low level of cooked green vegetable | Mineral/flint note in rice, not seen in the Control (all samples (1, 10, 100 ppb)): low mineral/flint note | Mouthdrying in rice, not seen in the Control (all samples (1, 10, 100 ppb)): have mouthdrying | Salt burn feeling factor in rice compared to the Control (all samples (1, 10, 100 ppb)): higher | Salt in rice compared to the Control (all samples (1, 10, 100 ppb)): saltier than the Control | Umami feeling factor in rice compared to the Control (all samples (1, 10, 100 ppb)): higher | Bitter (BASIC TASTES) (1.0 ppb (5 ppm)): 0.8 | Black Pepper (1.0 ppb (5 ppm)): 1.0 | Cooked Corn (1.0 ppb (5 ppm)): 0.5 | Cooked Green Vegetable (1.0 ppb (5 ppm)): 0.5 | Cooked White Rice (1.0 ppb (5 ppm)): 3.0 | Dehydrated onion/garlic (1.0 ppb (5 ppm)): 1.3 | HVP/Brothy (1.0 ppb (5 ppm)): 1.0 | Mineral/Flint (1.0 ppb (5 ppm)): 0.8 | Mouthdrying (Texture) (1.0 ppb (5 ppm)): 1.0 | Residual Mouthcoating (Texture) (1.0 ppb (5 ppm)): 1.0 | Salt (BASIC TASTES) (1.0 ppb (5 ppm)): 15.0 | Salt Burn (Chemical Feeling Factors) (1.0 ppb (5 ppm)): 0.8 | Sweet (BASIC TASTES) (1.0 ppb (5 ppm)): 3.0 | Total Aromatics (1.0 ppb (5 ppm)): 6.0 | Umami (Chemical Feeling Factors) (1.0 ppb (5 ppm)): 1.5 | Vegetable Complex (1.0 ppb (5 ppm)): 1.0 | Vegetable Oil (1.0 ppb (5 ppm)): 0.8 | Bitter (BASIC TASTES) (10.0 ppb (50 ppm)): 1.5 | Black Pepper (10.0 ppb (50 ppm)): 1.0 | Cooked Corn (10.0 ppb (50 ppm)): 0.5 | Cooked Green Vegetable (10.0 ppb (50 ppm)): 0.5 | Cooked White Rice (10.0 ppb (50 ppm)): 3.0 | Dehydrated onion/garlic (10.0 ppb (50 ppm)): 1.5 | HVP/Brothy (10.0 ppb (50 ppm)): 1.5 | Mineral/Flint (10.0 ppb (50 ppm)): 0.8 | Mouthdrying (Texture) (10.0 ppb (50 ppm)): 1.5 | Residual Mouthcoating (Texture) (10.0 ppb (50 ppm)): 1.0 | Salt (BASIC TASTES) (10.0 ppb (50 ppm)): 15.5 | Salt Burn (Chemical Feeling Factors) (10.0 ppb (50 ppm)): 1.3 | Sweet (BASIC TASTES) (10.0 ppb (50 ppm)): 3.5 | Total Aromatics (10.0 ppb (50 ppm)): 6.5 | Umami (Chemical Feeling Factors) (10.0 ppb (50 ppm)): 2.5 | Vegetable Complex (10.0 ppb (50 ppm)): 1.0 | Vegetable Oil (10.0 ppb (50 ppm)): 0.8 | Bitter (BASIC TASTES) (100 ppb (50 ppm)): 1.0 | Black Pepper (100 ppb (50 ppm)): 1.0 | Cooked Corn (100 ppb (50 ppm)): 0.8 | Cooked Green Vegetable (100 ppb (50 ppm)): 0.8 | Cooked White Rice (100 ppb (50 ppm)): 3.0 | Dehydrated onion/garlic (100 ppb (50 ppm)): 1.5 | HVP/Brothy (100 ppb (50 ppm)): 1.5 | Mineral/Flint (100 ppb (50 ppm)): 1.0 | Mouthdrying (Texture) (100 ppb (50 ppm)): 1.5 | Residual Mouthcoating (Texture) (100 ppb (50 ppm)): 1.0 | Salt (BASIC TASTES) (100 ppb (50 ppm)): 16.0 | Salt Burn (Chemical Feeling Factors) (100 ppb (50 ppm)): 1.8 | Sweet (BASIC TASTES) (100 ppb (50 ppm)): 3.5 | Total Aromatics (100 ppb (50 ppm)): 6.5 | Umami (Chemical Feeling Factors) (100 ppb (50 ppm)): 3.0 | Vegetable Complex (100 ppb (50 ppm)): 1.5 | Vegetable Oil (100 ppb (50 ppm)): 0.8

[pGlu]-Cys-Gly [FE-36]
Salt burn in rice (100 ppb): low level of salt burn | Bitter in rice (all samples (1, 10, 100 ppb)): slightly bitter | Cooked green vegetable in rice compared to the Control (all samples (1, 10, 100 ppb)): low level of cooked green vegetable | Mouthdrying in rice, not seen in the Control (all samples (1, 10, 100 ppb)): have mouthdrying | Umami feeling factor in rice compared to the Control (all samples (1, 10, 100 ppb)): higher in umami | Bitter (BASIC TASTES) (1.0 ppb (5 ppm)): 0.5 | Black Pepper (1.0 ppb (5 ppm)): 1.0 | Cooked Corn (1.0 ppb (5 ppm)): 1.0 | Cooked Green Vegetable (1.0 ppb (5 ppm)): 0.5 | Cooked White Rice (1.0 ppb (5 ppm)): 3.0 | Dehydrated onion/garlic (1.0 ppb (5 ppm)): 1.0 | HVP/Brothy (1.0 ppb (5 ppm)): 1.0 | Mouthdrying (Texture) (1.0 ppb (5 ppm)): 1.0 | Residual Mouthcoating (Texture) (1.0 ppb (5 ppm)): 1.0 | Salt (BASIC TASTES) (1.0 ppb (5 ppm)): 11.5 | Salt Burn (Chemical Feeling Factors) (1.0 ppb (5 ppm)): 0.0 | Sweet (BASIC TASTES) (1.0 ppb (5 ppm)): 3.5 | Total Aromatics (1.0 ppb (5 ppm)): 6.0 | Umami (Chemical Feeling Factors) (1.0 ppb (5 ppm)): 1.5 | Vegetable Complex (1.0 ppb (5 ppm)): 1.5 | Vegetable Oil (1.0 ppb (5 ppm)): 0.8 | Bitter (BASIC TASTES) (10.0 ppb (50 ppm)): 1.0 | Black Pepper (10.0 ppb (50 ppm)): 1.0 | Cooked Corn (10.0 ppb (50 ppm)): 1.0 | Cooked Green Vegetable (10.0 ppb (50 ppm)): 1.0 | Cooked White Rice (10.0 ppb (50 ppm)): 3.0 | Dehydrated onion/garlic (10.0 ppb (50 ppm)): 1.5 | HVP/Brothy (10.0 ppb (50 ppm)): 1.0 | Mouthdrying (Texture) (10.0 ppb (50 ppm)): 1.5 | Residual Mouthcoating (Texture) (10.0 ppb (50 ppm)): 1.0 | Salt (BASIC TASTES) (10.0 ppb (50 ppm)): 13.5 | Salt Burn (Chemical Feeling Factors) (10.0 ppb (50 ppm)): 0.0 | Sweet (BASIC TASTES) (10.0 ppb (50 ppm)): 3.5 | Total Aromatics (10.0 ppb (50 ppm)): 6.5 | Umami (Chemical Feeling Factors) (10.0 ppb (50 ppm)): 3.0 | Vegetable Complex (10.0 ppb (50 ppm)): 2.0 | Vegetable Oil (10.0 ppb (50 ppm)): 0.8 | Bitter (BASIC TASTES) (100 ppb (50 ppm)): 0.5 | Black Pepper (100 ppb (50 ppm)): 0.8 | Cooked Corn (100 ppb (50 ppm)): 0.8 | Cooked Green Vegetable (100 ppb (50 ppm)): 0.8 | Cooked White Rice (100 ppb (50 ppm)): 3.0 | Dehydrated onion/garlic (100 ppb (50 ppm)): 1.3 | HVP/Brothy (100 ppb (50 ppm)): 1.0 | Mouthdrying (Texture) (100 ppb (50 ppm)): 2.0 | Residual Mouthcoating (Texture) (100 ppb (50 ppm)): 1.0 | Salt (BASIC TASTES) (100 ppb (50 ppm)): 13.5 | Salt Burn (Chemical Feeling Factors) (100 ppb (50 ppm)): 1.0 | Sweet (BASIC TASTES) (100 ppb (50 ppm)): 3.5 | Total Aromatics (100 ppb (50 ppm)): 6.3 | Umami (Chemical Feeling Factors) (100 ppb (50 ppm)): 4.0 | Vegetable Complex (100 ppb (50 ppm)): 1.5 | Vegetable Oil (100 ppb (50 ppm)): 0.8
